For one assay, the target named is T1, PDGFRalpha(V561D) (Homo sapiens, UniProt P16234, V561D).
T1 construct: recombinant human PDGFRalpha, amino acids 550end containing the V561 D mutation; 6His (N)
The experiment in a line: PDGFRalpha(V561D) assay. The assay is classed as biochemical. To be noted: recombinant human PDGFRalpha aa 550-end, 200 μM ATP, 1.4E-06 means 1.4×10^−6, read-out: Inhibition (IC50) of PDGFRα (V561D). The method, boiled down: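 Radiometric filter-binding assay: substrate phosphorylation by recombinant N-His-tagged human PDGFRα 550-end V561D was quenched with 3% phosphoric acid after 40 min at room temperature, then counted.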

For another assay, the target named is T2, c-Kit(V654A) (Homo sapiens, UniProt P10721, V654A).
T2 construct: amino acids 544-end containing the V654A mutation; GST (N)
The experiment in a line: c-Kit(V654A) assay. The assay is classed as biochemical. The settings on record: recombinant human c-Kit aa 544-end, 200 μM ATP, 1.4E-06 means 1.4×10^−6, read-out: Inhibition (IC50) of c-KIT (V654A). An outline of the steps:
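Radiometric filter-binding read-out: substrate 33P incorporation counted by scintillation after P30 filtermat washes in 75 mM phosphoric acid and methanol. Enzyme: N-GST recombinant human c-Kit aa 544-end carrying V654A.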

T1 sequence (P16234 550-1089 V561D): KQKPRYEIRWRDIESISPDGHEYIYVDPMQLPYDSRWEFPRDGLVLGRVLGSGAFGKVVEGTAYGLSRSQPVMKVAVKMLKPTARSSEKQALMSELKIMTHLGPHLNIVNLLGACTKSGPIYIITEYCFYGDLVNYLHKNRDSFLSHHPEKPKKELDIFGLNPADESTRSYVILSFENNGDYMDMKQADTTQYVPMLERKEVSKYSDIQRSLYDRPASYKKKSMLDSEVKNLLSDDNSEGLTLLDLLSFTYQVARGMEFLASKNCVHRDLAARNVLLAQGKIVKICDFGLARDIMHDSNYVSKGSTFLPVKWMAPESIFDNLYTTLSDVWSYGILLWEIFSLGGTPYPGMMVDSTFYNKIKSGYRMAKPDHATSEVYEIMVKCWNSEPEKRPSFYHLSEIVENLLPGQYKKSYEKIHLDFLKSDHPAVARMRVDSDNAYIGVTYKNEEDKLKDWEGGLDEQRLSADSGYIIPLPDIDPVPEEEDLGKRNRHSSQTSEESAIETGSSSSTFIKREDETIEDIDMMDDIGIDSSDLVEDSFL
T2 sequence (P10721 544-976 V654A): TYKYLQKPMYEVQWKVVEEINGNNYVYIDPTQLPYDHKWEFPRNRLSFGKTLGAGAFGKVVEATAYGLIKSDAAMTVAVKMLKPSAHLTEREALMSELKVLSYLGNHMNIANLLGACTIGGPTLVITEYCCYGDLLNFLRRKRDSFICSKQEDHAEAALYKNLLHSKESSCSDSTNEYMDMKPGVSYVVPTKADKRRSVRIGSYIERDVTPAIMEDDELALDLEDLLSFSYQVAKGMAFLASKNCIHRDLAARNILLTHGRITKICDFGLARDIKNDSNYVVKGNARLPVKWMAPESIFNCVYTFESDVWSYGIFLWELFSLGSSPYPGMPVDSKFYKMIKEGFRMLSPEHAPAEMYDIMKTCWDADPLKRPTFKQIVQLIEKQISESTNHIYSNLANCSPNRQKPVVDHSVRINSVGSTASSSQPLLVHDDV

Take `CN(C)[C@H]1CCCN(C(=O)c2ccc(-n3cc(-c4cc5cc(F)c(F)cc5[nH]c4=O)nn3)cc2)C1` [A329, 3-{1-[4-((S)-3-dimethylamino-piperidine-1-carbonyl)-phenyl]-1H-[1,2,3]triazol-4-yl}-6,7-difluoro-1H-quinolin-2-one]: the half-maximal inhibitory concentration (IC50) on PDGFRalpha(V561D) worked out at 92 nM; on c-Kit(V654A), 73 nM.

Consider `CN1CCN(c2ccc(-n3cc(-c4cc5ccccc5[nH]c4=O)nn3)cc2)C(=O)C1` [A68, 3-{1-[4-(4-methyl-2-oxo-piperazin-1-yl)-phenyl]-1H-[1,2,3]triazol-4-yl}-1H-quinolin-2-one], for which the results for the IC50 on PDGFRalpha(V561D) and at c-Kit(V654A) were 7 nM and 28 nM, respectively.

For `O=C(c1ccc(-n2cc(-c3cc4cc(Cl)ccc4[nH]c3=O)nn2)cc1)N1CCC[C@H]1CO` [A246, 6-chloro-3-{1-[4-((S)-2-hydroxymethyl-pyrrolidine-1-carbonyl)-phenyl]-1H-[1,2,3]triazol-4-yl}-1H-quinolin-2-one], the half-maximal inhibitory concentration (IC50) was 7.4 nM on PDGFRalpha(V561D) and 23 nM at c-Kit(V654A).

On to `CN(C)[C@@H]1CCCN(C(=O)c2ccc(-n3cc(-c4cc5ccc(F)cc5[nH]c4=O)nn3)cc2)C1` [A333, 3-{1-[4-((R)-3-dimethylamino-piperidine-1-carbonyl)-phenyl]-1H-[1,2,3]triazol-4-yl}-7-fluoro-1H-quinolin-2-one], for which the IC50 on PDGFRalpha(V561D) was determined as 120 nM; on c-Kit(V654A), 63 nM.

As for `O=C(c1ccc(-n2cc(-c3cc4cc(Cl)ccc4[nH]c3=O)nn2)cc1)N1CCN(C2COC2)CC1` [A250, 6-chloro-3-{1-[4-(4-oxetan-3-yl-piperazine-1-carbonyl)-phenyl]-1H-[1,2,3]triazol-4-yl}-1H-quinolin-2-one], the IC50 is 76 nM on PDGFRalpha(V561D) and 40 nM at c-Kit(V654A).

In the case of `CNC(=O)c1ccc(-n2cc(-c3cc4ccccc4[nH]c3=O)nn2)cc1F` [A39, 2-fluoro-N-methyl-4-[4-(2-oxo-1,2-dihydro-quinolin-3-yl)-[1,2,3]triazol-1-yl]-benzamide], the values for the IC50 on PDGFRalpha(V561D) and on c-Kit(V654A) were 23 nM and 74 nM, respectively.

On to `CN1CCN(c2ccc(-n3cc(-c4cc5cc(F)ccc5[nH]c4=O)nn3)cc2)CC1` [A70, 6-fluoro-3-{1-[4-(4-methyl-piperazin-1-yl)-phenyl]-1H-[1,2,3]triazol-4-yl}-1H-quinolin-2-one], for which the values for the 50% inhibitory concentration (IC50) at PDGFRalpha(V561D) and at c-Kit(V654A) were 5 nM and 14 nM, respectively.

For `CN1Cc2cc(-n3cc(-c4cc5cc(F)ccc5[nH]c4=O)nn3)ccc2C1=O` [A354, 6-fluoro-3-[1-(2-methyl-1-oxo-2,3-dihydro-1H-isoindol-5-yl)-1H-[1,2,3]triazol-4-yl]-1H-quinolin-2-one], the values for the IC50 at PDGFRalpha(V561D) and on c-Kit(V654A) were 420 nM and 3100 nM, respectively.

As to `Cc1ccc2cc(-c3cn(-c4ccc(C(=O)N5CCN(C)CC5)cc4)nn3)c(=O)[nH]c2n1` [A65, 7-methyl-3-{1-[4-(4-methyl-piperazine-1-carbonyl)-phenyl]-1H-[1,2,3]triazol-4-yl}-1H-[1,8]naphthyridin-2-one], the IC50 amounted to 150 nM at PDGFRalpha(V561D) and 1200 nM on c-Kit(V654A).

For `O=C(c1ccc(-n2cc(-c3cc4cc(F)ccc4[nH]c3=O)nn2)cc1)N1CCOC2(COC2)C1` [A231, 3-{1-[4-(2,5-dioxa-8-aza-spiro[3.5]nonane-8-carbonyl)-phenyl]-1H-[1,2,3]triazol-4-yl}-6-fluoro-1H-quinolin-2-one], the IC50 at PDGFRalpha(V561D) was 340 nM; on c-Kit(V654A) it was 90 nM.

Consider `O=c1[nH]c2ccccc2cc1-c1cn(-c2ccc(F)cc2)nn1` [A12, 3-[1-(4-fluoro-phenyl)-1H-[1,2,3]triazol-4-yl]-1H-quinolin-2-one], for which the half-maximal inhibitory concentration (IC50) at PDGFRalpha(V561D) was found to be 63 nM; at c-Kit(V654A), 69 nM.

Regarding `CO[C@@H]1C[C@@H](CO)N(C(=O)c2ccc(-n3cc(-c4cc5cc(F)ccc5[nH]c4=O)cn3)cc2)C1` [A301, 6-fluoro-3-{1-[4-((2S,4R)-2-hydroxymethyl-4-methoxy-pyrrolidine-1-carbonyl)-phenyl]-1H-pyrazol-4-yl}-1H-quinolin-2-one], the results for the concentration for half-maximal inhibition (IC50) on PDGFRalpha(V561D) and on c-Kit(V654A) were 1 nM and 43 nM, respectively.

Turning to `O=C(c1ccc(-n2cc(-c3cc4cc(F)ccc4[nH]c3=O)nn2)cc1)N1C[C@H]2CNC[C@H]2C1` [A308, 6-fluoro-3-{1-[4-((cis)-hexahydro-pyrrolo[3,4-c]pyrrole-2-carbonyl)-phenyl]-1H-[1,2,3]triazol-4-yl}-1H-quinolin-2-one], the half-inhibitory concentration (IC50) was 97.4 nM on PDGFRalpha(V561D) and 10 nM on c-Kit(V654A).

For the molecule `CN1CCN(c2ccc(-n3cc(-c4cc5cc(F)ccc5[nH]c4=O)nn3)cc2)C(=O)C1` [A71, 6-fluoro-3-{1-[4-(4-methyl-2-oxo-piperazin-1-yl)-phenyl]-1H-[1,2,3]triazol-4-yl}-1H-quinolin-2-one], the half-maximal inhibitory concentration (IC50) on PDGFRalpha(V561D) worked out at 4 nM; at c-Kit(V654A), 8 nM.

With `Cc1cc2[nH]c(=O)c(-c3cn(-c4ccc(C(=O)N5CCN(C)CC5)cc4)nn3)cc2cc1F` [A222, 6-fluoro-7-methyl-3-{1-[4-(4-methyl-piperazine-1-carbonyl)-phenyl]-1H-[1,2,3]triazol-4-yl}-1H-quinolin-2-one], the concentration for half-maximal inhibition (IC50) on PDGFRalpha(V561D) amounted to 210 nM; at c-Kit(V654A) it was 72 nM.

Turning to `O=C(c1ccc(-n2cc(-c3cc4cc(F)cnc4[nH]c3=O)nn2)cc1)N1CCNCC1` [A122, 6-fluoro-3-{1-[4-(piperazine-1-carbonyl)-phenyl]-1H-[1,2,3]triazol-4-yl}-1H-[1,8]naphthyridin-2-one], the IC50 was 5 nM at PDGFRalpha(V561D) and 73 nM at c-Kit(V654A).

In the case of `O=C(c1ccc(-n2cc(-c3cc4cc(F)c(F)cc4[nH]c3=O)nn2)cc1)N1CCC(OCCN2CCCC2)C1` (centres unmarked) [A225, 6,7-difluoro-3-(1-{4-[3-(2-pyrrolidin-1-yl-ethoxy)-pyrrolidine-1-carbonyl]-phenyl}-1H-[1,2,3]triazol-4-yl)-1H-quinolin-2-one], the 50% inhibitory concentration (IC50) at PDGFRalpha(V561D) turned out to be 580 nM; on c-Kit(V654A) it was 190 nM.

Take `O=C(c1ccc(-n2cc(-c3cc4ccc(F)cc4[nH]c3=O)nn2)cc1)N1CCOCC1` [A83, 7-fluoro-3-{1-[4-(morpholine-4-carbonyl)-phenyl]-1H-[1,2,3]triazol-4-yl}-1H-quinolin-2-one]: the values for the concentration for half-maximal inhibition (IC50) on PDGFRalpha(V561D) and on c-Kit(V654A) were 3 nM and 10 nM, respectively.

Consider `CN1CC[C@H](Oc2ccc(-n3cc(-c4cc5cc(Cl)ccc5[nH]c4=O)nn3)cc2)C1` [A368, 6-chloro-3-{1-[4-((S)-1-methyl-pyrrolidin-3-yloxy)-phenyl]-1H-[1,2,3]triazol-4-yl}-1H-quinolin-2-one], for which the figures for the IC50 on PDGFRalpha(V561D) and at c-Kit(V654A) were 34 nM and 23 nM, respectively.

For `O=C(c1ccc(-n2cc(-c3cc4cc(Cl)ccc4[nH]c3=O)nn2)cc1)N1CCCCC1CO` (centres unmarked) [A255, 6-chloro-3-{1-[4-(2-hydroxymethyl-piperidine-1-carbonyl)-phenyl]-1H-[1,2,3]triazol-4-yl}-1H-quinolin-2-one], the results for the IC50 on PDGFRalpha(V561D) and on c-Kit(V654A) were 2.6 nM and 22 nM, respectively.

Regarding `O=c1[nH]c2ccc(F)cc2cc1-c1cn(-c2ccc(OCCCN3CCNCC3)cc2)nn1` [A131, 6-fluoro-3-{1-[4-(3-piperazin-1-yl-propoxy)-phenyl]-1H-[1,2,3]triazol-4-yl}-1H-quinolin-2-one], the IC50 was found to be 38 nM on PDGFRalpha(V561D) and 9.7 nM at c-Kit(V654A).

With `N[C@@H]1[C@H]2CN(C(=O)c3ccc(-n4cc(-c5cc6cc(F)ccc6[nH]c5=O)nn4)cc3)C[C@@H]12` [A317, 3-{1-[4-(6-amino-3-aza-bicyclo[3.1.0]hexane-3-carbonyl)-phenyl]-1H-[1,2,3]triazol-4-yl}-6-fluoro-1H-quinolin-2-one], the figures for the half-maximal inhibitory concentration (IC50) at PDGFRalpha(V561D) and on c-Kit(V654A) were 1400 nM and 120 nM, respectively.

As for `CN1CCN(C(=O)c2ccc(-n3cc(-c4cc5cnccc5[nH]c4=O)nn3)cc2)CC1` [A62, 3-{1-[4-(4-methyl-piperazine-1-carbonyl)-phenyl]-1H-[1,2,3]triazol-4-yl}-1H-[1,6]naphthyridin-2-one], the figures for the 50% inhibitory concentration (IC50) on PDGFRalpha(V561D) and at c-Kit(V654A) were 46 nM and 200 nM, respectively.

Consider `O=C(c1ccc(-n2cc(-c3cc4cncnc4[nH]c3=O)nn2)cc1)N1CCOCC1` [A94, 6-{1-[4-(Morpholine-4-carbonyl)-phenyl]-1H-[1,2,3]triazol-4-yl}-8H-pyrido[2,3-d]pyrimidin-7-one], for which the concentration for half-maximal inhibition (IC50) on PDGFRalpha(V561D) came out at 2300 nM; at c-Kit(V654A) it was 3600 nM.

Take `CO[C@@H]1C[C@H](CO)N(C(=O)c2ccc(-n3cc(-c4cc5cc(Cl)ccc5[nH]c4=O)nn3)cc2)C1` [A247, 6-chloro-3-{1-[4-((2R,4R)-2-hydroxymethyl-4-methoxy-pyrrolidine-1-carbonyl)-phenyl]-1H-[1,2,3]triazol-4-yl}-1H-quinolin-2-one]: the results for the 50% inhibitory concentration (IC50) at PDGFRalpha(V561D) and at c-Kit(V654A) were 45 nM and 23 nM, respectively.

Take `O=C(c1ccc(-n2cc(-c3cc4c(F)cc(F)cc4[nH]c3=O)nn2)cc1)N1CCC(N2CCCC2)C1` (centres unmarked) [A105, 3-{1-[4-([1,3′]bipyrrolidinyl-1′-carbonyl)-phenyl]-1H-[1,2,3]triazol-4-yl}-5,7-difluoro-1H-quinolin-2-one]: the figures for the IC50 on PDGFRalpha(V561D) and at c-Kit(V654A) were 340 nM and 9.7 nM, respectively.

Take `CN(C)C[C@@H]1CCN(C(=O)c2ccc(-n3cc(-c4cc5cc(F)ccc5[nH]c4=O)nn3)cc2)C1` [A326, 3-{1-[4-((S)-3-dimethylaminomethyl-pyrrolidine-1-carbonyl)-phenyl]-1H-[1,2,3]triazol-4-yl}-6-fluoro-1H-quinolin-2-one]: the values for the IC50 at PDGFRalpha(V561D) and at c-Kit(V654A) were 940 nM and 180 nM, respectively.

As to `O=C(c1cccc(-n2cc(-c3cc4cc(F)ccc4[nH]c3=O)nn2)c1)N1CCC(N2CCCC2)C1` (centres unmarked) [A107, 3-{1-[3-([1,3′]bipyrrolidinyl-1′-carbonyl)-phenyl]-1H-[1,2,3]triazol-4-yl}-6-fluoro-1H-quinolin-2-one], the half-maximal inhibitory concentration (IC50) came out at 23 nM on PDGFRalpha(V561D) and 44 nM on c-Kit(V654A).

For the origin of these results see US11939314B2, “Quinolin-2-one derivatives” (MERCK PATENT GMBH, priority 2016, dated 2024).
